This note sets out measurements from patent US12209087B2, “AKT1 modulators” (Alterome Therapeutics, Inc., priority 2022, dated 2025).

By IC50 is commonly meant the midpoint of a concentration-inhibition curve.

Bounds are passed on as bounds.

The target of one assay is T1, full length AKT E17K (Homo sapiens, UniProt P31749, E17K).
T1 construct: host or cells: HEK-293 (ATCC CRL-1573)
T1 sequence (P31749 whole entry E17K): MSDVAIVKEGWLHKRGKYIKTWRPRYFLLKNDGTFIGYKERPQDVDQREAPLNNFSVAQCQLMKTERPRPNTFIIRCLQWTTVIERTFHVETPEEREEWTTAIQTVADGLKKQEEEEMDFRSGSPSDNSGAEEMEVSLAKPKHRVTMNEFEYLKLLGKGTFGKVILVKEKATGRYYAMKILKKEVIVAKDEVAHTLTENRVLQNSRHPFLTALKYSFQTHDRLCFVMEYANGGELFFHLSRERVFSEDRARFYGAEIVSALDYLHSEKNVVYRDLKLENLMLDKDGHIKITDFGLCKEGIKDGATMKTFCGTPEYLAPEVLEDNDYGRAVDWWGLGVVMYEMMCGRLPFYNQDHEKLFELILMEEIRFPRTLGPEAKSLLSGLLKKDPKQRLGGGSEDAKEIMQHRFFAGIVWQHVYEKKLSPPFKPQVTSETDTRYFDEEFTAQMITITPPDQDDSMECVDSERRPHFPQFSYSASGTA
Description: NanoBRET Target Engagement (TE) Assay. It is filed as cell-based. To be noted: competitive displacement of tracer in cells, read-out: AKT1 E17K IC50. A digest of the protocol: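 Compound and tracer incubated 2 h before luminescence at donor 450 nm and acceptor 600 nm, with extracellular signal inhibited. EC50 by sigmoidal variable-slope regression.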
For `Cc1cnc(-c2ccc3nc(-c4cccnc4N)n(-c4ccc(CN5CCC(Nc6ccnc(C#N)n6)CC5)cc4)c3n2)cn1` [Example 582, 4-((1-(4-(2-(2-Aminopyridin-3-yl)-5-(5-methylpyrazin-2-yl)-3H-imidazo[4,5-b]pyridin-3-yl)benzyl)piperidin-4-yl)amino)pyrimidine-2-carbonitrile], the concentration for half-maximal inhibition (IC50) is less than 0.015 µM. Same read-out and setting: then `[2H]C([2H])(F)Oc1ccc(-c2ccc3nc(-c4cccnc4N)n(-c4ccc(CN5CCC(Nc6ccnc(C#N)n6)CC5)cc4)c3n2)cn1` [Example 623, 4-((1-(4-(2-(2-Aminopyridin-3-yl)-5-(6-(fluoromethoxy-d2)pyridin-3-yl)-3H-imidazo[4,5-b]pyridin-3-yl)benzyl)piperidin-4-yl)amino)pyrimidine-2-carbonitrile], with less than 0.015 µM; and `N#Cc1nccc(NC2CCN(Cc3ccc(-n4c(-c5cccnc5N)nc5ccc(-n6nccn6)nc54)cc3)CC2)n1` [Example 592, 4-((1-(4-(2-(2-Aminopyridin-3-yl)-5-(2H-1,2,3-triazol-2-yl)-3H-imidazo[4,5-b]pyridin-3-yl)benzyl)piperidin-4-yl)amino)pyrimidine-2-carbonitrile], with less than 0.015 µM. On to `COc1cc(F)ccc1-c1ccc2nc(-c3cccnc3N)n(-c3ccc(CN4CCC(Nc5ccnc(C#N)n5)CC4)cc3)c2n1` [Example 469, 4-((1-(4-(2-(2-Aminopyridin-3-yl)-5-(4-fluoro-2-methoxyphenyl)-3H-imidazo[4,5-b]pyridin-3-yl)benzyl)piperidin-4-yl)amino)pyrimidine-2-carbonitrile], for which the IC50 is less than 0.015 µM.

Consider `Cn1cnnc1-c1ccc2nc(-c3cccnc3N)n(-c3ccc(CN4CCC(Nc5ccnc(C#N)n5)CC4)cc3)c2n1` [Example 569, 4-((1-(4-(2-(2-Aminopyridin-3-yl)-5-(4-methyl-4H-1,2,4-triazol-3-yl)-3H-imidazo[4,5-b]pyridin-3-yl)benzyl)piperidin-4-yl)amino)pyrimidine-2-carbonitrile], for which the IC50 was 0.06 to 0.6 µM. The same measure, in the same setting: then `N#Cc1ccc(-c2ccc3nc(-c4cccnc4N)n(-c4ccc(CN5CCC(Nc6ccnc(C#N)n6)CC5)cc4)c3n2)cn1` [Example 419, 4-((1-(4-(2-(2-Aminopyridin-3-yl)-5-(6-cyanopyridin-3-yl)-3H-imidazo[4,5-b]pyridin-3-yl)benzyl)piperidin-4-yl)amino)pyrimidine-2-carbonitrile], with less than 0.015 µM; and `Cc1cc2nc(-c3cccnc3N)n(-c3ccc(CN4CCC(Nc5ccnc(C#N)n5)CC4)cc3)c2nc1C` [Example 412, 4-((1-(4-(2-(2-Aminopyridin-3-yl)-5,6-dimethyl-3H-imidazo[4,5-b]pyridin-3-yl)benzyl)piperidin-4-yl)amino)pyrimidine-2-carbonitrile], with less than 0.015 µM; and `[2H]C([2H])([2H])n1ncc(-c2ccc3nc(-c4cccnc4N)n(-c4ccc(CN5CCC(Nc6ccnc(C#N)n6)CC5)cc4)c3n2)n1` [Example 608, 4-((1-(4-(2-(2-Aminopyridin-3-yl)-5-(2-(methyl-d3)-2H-1,2,3-triazol-4-yl)-3H-imidazo[4,5-b]pyridin-3-yl)benzyl)piperidin-4-yl)amino)pyrimidine-2-carbonitrile], with less than 0.015 µM. With `C[C@@H]1CN(Cc2ccc(-n3c(-c4cccnc4N)nc4ccc(-c5ccccc5)nc43)cc2)C[C@H](C)N1c1cc(C#N)ncn1` [Example 380, 6-((2S,6R)-4-(4-(2-(2-Aminopyridin-3-yl)-5-phenyl-3H-imidazo[4,5-b]pyridin-3-yl)benzyl)-2,6-dimethylpiperazin-1-yl)pyrimidine-4-carbonitrile], the IC50 lay within 0.6 to 10 µM. `[2H]C([2H])(c1ccc(-n2c(-c3cccnc3N)nc3cccnc32)cc1)N1CCC(Nc2ccnc(C#N)n2)CC1` [Example 385, 4-((1-((4-(2-(2-Aminopyridin-3-yl)-3H-imidazo[4,5-b]pyridin-3-yl)phenyl)methyl-d2)piperidin-4-yl)amino)pyrimidine-2-carbonitrile]: the IC50 fell in the range of 0.015 to 0.06 µM.

In the case of `N#Cc1cc(-c2ccc3nc(-c4cccnc4N)n(-c4ccc(CN5CCC(Nc6ccnc(C#N)n6)CC5)cc4)c3n2)ccn1` [Example 429, 4-((1-(4-(2-(2-Aminopyridin-3-yl)-5-(2-cyanopyridin-4-yl)-3H-imidazo[4,5-b]pyridin-3-yl)benzyl)piperidin-4-yl)amino)pyrimidine-2-carbonitrile], the IC50 was less than 0.015 µM. On the same count and under the same terms, then `Cc1noc(C)c1-c1ccc2nc(-c3cccnc3N)n(-c3ccc(CN4CCC(Nc5ccnc(C#N)n5)CC4)cc3)c2n1` [Example 473, 4-((1-(4-(2-(2-Aminopyridin-3-yl)-5-(3,5-dimethylisoxazol-4-yl)-3H-imidazo[4,5-b]pyridin-3-yl)benzyl)piperidin-4-yl)amino)pyrimidine-2-carbonitrile], with less than 0.015 µM; and `N#Cc1nccc(NC2CCN(Cc3ccc(-n4c(-c5cccnc5N)nc5ccc(N6CCOCC6=O)nc54)cc3)CC2)n1` [Example 387, 4-((1-(4-(2-(2-Aminopyridin-3-yl)-5-(3-oxomorpholino)-3H-imidazo[4,5-b]pyridin-3-yl)benzyl)piperidin-4-yl)amino)pyrimidine-2-carbonitrile], with 0.06 to 0.6 µM; and `Cn1ncc(-c2ccc3nc(-c4cccnc4N)n(-c4ccc(CN5CCC(Nc6ccnc(C#N)n6)CC5)cc4)c3n2)n1` [Example 472, 4-((1-(4-(2-(2-Aminopyridin-3-yl)-5-(2-methyl-2H-1,2,3-triazol-4-yl)-3H-imidazo[4,5-b]pyridin-3-yl)benzyl)piperidin-4-yl)amino)pyrimidine-2-carbonitrile], with less than 0.015 µM.

On to `N#Cc1nccc(NC2CCN(Cc3ccc(-n4c(-c5cccnc5N)nc5ccc(-c6cocn6)nc54)cc3)CC2)n1` [Example 594, 4-((1-(4-(2-(2-Aminopyridin-3-yl)-5-(oxazol-4-yl)-3H-imidazo[4,5-b]pyridin-3-yl)benzyl)piperidin-4-yl)amino)pyrimidine-2-carbonitrile], for which the IC50 was less than 0.015 µM. On the same count and under the same terms, then `Cn1cnc(-c2ccc3nc(-c4cccnc4N)n(-c4ccc(CN5CCC(Nc6ccnc(C#N)n6)CC5)cc4)c3n2)n1` [Example 559, 4-((1-(4-(2-(2-Aminopyridin-3-yl)-5-(1-methyl-1H-1,2,4-triazol-3-yl)-3H-imidazo[4,5-b]pyridin-3-yl)benzyl)piperidin-4-yl)amino)pyrimidine-2-carbonitrile], with 0.015 to 0.06 µM.

On to `Cn1ncnc1-c1ccc2nc(-c3cccnc3N)n(-c3ccc(CN4CCC(Nc5ccnc(C#N)n5)CC4)cc3)c2n1` [Example 567, 4-((1-(4-(2-(2-Aminopyridin-3-yl)-5-(1-methyl-1H-1,2,4-triazol-5-yl)-3H-imidazo[4,5-b]pyridin-3-yl)benzyl)piperidin-4-yl)amino)pyrimidine-2-carbonitrile], for which the IC50 is less than 0.015 µM.

Still in this assay, the particulars now being: competitive tracer displacement in living cells, read-out: AKT1 E17K IC50.
On to `N#Cc1nccc(C(=O)NCc2ccc(-n3c(-c4cccnc4N)nc4cccnc43)cc2)n1` [Example 148, N-(4-(2-(2-Aminopyridin-3-yl)-3H-imidazo[4,5-b]pyridin-3-yl)benzyl)-2-cyanopyrimidine-4-carboxamide], for which the IC50 was 0.6 to 10 µM.

On to `N#Cc1nccc(N2CCN(Cc3ccc(-n4c(-c5cccnc5N)nc5ccc(-c6ccccc6C#N)nc54)cc3)CC2)n1` [Example 293, 4-(4-(4-(2-(2-Aminopyridin-3-yl)-5-(2-cyanophenyl)-3H-imidazo[4,5-b]pyridin-3-yl)benzyl)piperazin-1-yl)pyrimidine-2-carbonitrile], for which the IC50 was less than 0.015 µM. Regarding `N#Cc1cccc(C(=O)NCc2ccc(-n3c(-c4cccnc4N)nc4cc(-c5ccccc5)cnc43)cc2)n1` [Example 168, N-(4-(2-(2-Aminopyridin-3-yl)-6-phenyl-3H-imidazo[4,5-b]pyridin-3-yl)benzyl)-6-cyanopicolinamide], the IC50 fell in the range of 0.6 to 10 µM. Same read-out and setting: then `N#Cc1ccc(C(=O)NCc2ccc(-n3c(-c4cccnc4N)nc4cc(-c5ccccc5)cnc43)cc2)cn1` [Example 106, N-(4-(2-(2-Aminopyridin-3-yl)-6-phenyl-3H-imidazo[4,5-b]pyridin-3-yl)benzyl)-6-cyanonicotinamide], with 0.6 to 10 µM; and `N#Cc1cccc(OC2CCN(Cc3ccc(-n4c(-c5cccnc5N)nc5ccc(-c6ccccc6)nc54)cc3)CC2)n1` [Example 7, 6-((1-(4-(2-(2-Aminopyridin-3-yl)-5-phenyl-3H-imidazo[4,5-b]pyridin-3-yl)benzyl)piperidin-4-yl)oxy)picolinonitrile], with 0.06 to 0.6 µM; and `N#Cc1ccnc(N2CCN(Cc3ccc(-n4c(-c5cccnc5N)nc5cccnc54)cc3)CC2)c1` [Example 17, 2-(4-(4-(2-(2-Aminopyridin-3-yl)-3H-imidazo[4,5-b]pyridin-3-yl)benzyl)piperazin-1-yl)isonicotinonitrile], with 0.6 to 10 µM. On the same count and under the same terms, then `N#Cc1cc(C(=O)NC2CCN(Cc3ccc(-n4c(-c5cccnc5N)nc5cccnc54)cc3)CC2)ncn1` [Example 33, N-(1-(4-(2-(2-Aminopyridin-3-yl)-3H-imidazo[4,5-b]pyridin-3-yl)benzyl)piperidin-4-yl)-6-cyanopyrimidine-4-carboxamide], with 0.6 to 10 µM; and `N#Cc1cc(NC2CCN(Cc3ccc(-n4c(-c5cccnc5N)nc5cccnc54)cc3)CC2)ccn1` [Example 62, 4-((1-(4-(2-(2-Aminopyridin-3-yl)-3H-imidazo[4,5-b]pyridin-3-yl)benzyl)piperidin-4-yl)amino)picolinonitrile], with 0.6 to 10 µM. `N#Cc1nc2c(C(=O)NC3CCN(Cc4ccc(-n5c(-c6cccnc6N)nc6ccc(-c7ccccc7)nc65)cc4)CC3)cc(F)cc2s1` [Example 183, N-(1-(4-(2-(2-aminopyridin-3-yl)-5-phenyl-3H-imidazo[4,5-b]pyridin-3-yl)benzyl)piperidin-4-yl)-2-cyano-6-fluorobenzo[d]thiazole-4-carboxamide]: the IC50 was in the range of 0.06 to 0.6 µM. Turning to `N#Cc1ncccc1C(=O)NC1CCN(Cc2ccc(-n3c(-c4cccnc4N)nc4ccc(-c5ccccc5)nc43)cc2)CC1` [Example 58, N-(1-(4-(2-(2-Aminopyridin-3-yl)-5-phenyl-3H-imidazo[4,5-h]pyridin-3-yl)benzyl)piperidin-4-yl)-2-cyanonicotinamide], the concentration for half-maximal inhibition (IC50) is less than 0.015 µM.
